# From ChEMBL document CHEMBL1201862, “PubChem BioAssay data set” (2004)
#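 Results reflect a 48-hour exposure of cells in 96-well plates to compound at five concentrations. Abbreviation: GI50, concentration required for 50% inhibition of growth.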 The source made the active and inactive calls. No stated cut-off is given here; in the data, active = GI50 up to about 1.1 µM and inactive = higher.
# Experiments:
# Assay in all cases: NCI-60 cell line screen, 48 h
# EKVX = tested on: EKVX
# HOP-62 = tested on: HOP-62
# UO-31 = tested on: UO-31
# SK-MEL-28 = tested on: SK-MEL-28
# MOLT-4 = tested on: MOLT-4
# Malme-3M = tested on: Malme-3M
# OVCAR-5 = tested on: OVCAR-5
# HCC 2998 = tested on: HCC 2998
# HCT-15 = tested on: HCT-15
# SN12C = tested on: SN12C
# UACC-62 = tested on: UACC-62
# HCT-116 = tested on: HCT-116
# LOX IMVI = tested on: LOX IMVI
# OVCAR-3 = tested on: OVCAR-3
# NCI-H460 = tested on: NCI-H460
# K562 = tested on: K562
# Hs-578T = tested on: Hs-578T
# NCI/ADR-RES = tested on: NCI/ADR-RES
# BT-549 = tested on: BT-549
# MDA-MB-435 = tested on: MDA-MB-435
SMILES,GI50 (EKVX),GI50 (HOP-62),GI50 (UO-31),GI50 (SK-MEL-28),GI50 (MOLT-4),GI50 (Malme-3M),GI50 (OVCAR-5),GI50 (HCC 2998),GI50 (HCT-15),GI50 (SN12C),GI50 (UACC-62),GI50 (HCT-116),GI50 (LOX IMVI),GI50 (OVCAR-3),GI50 (NCI-H460),GI50 (K562),GI50 (Hs-578T),GI50 (NCI/ADR-RES),GI50 (BT-549),GI50 (MDA-MB-435)
O=C1C2=C(C(c3ccccc3)=C1c1ccccc1)c1ccccc1C1(c3ccccc3)C2=C(O)C(c2ccccc2)=C1c1ccccc1 (configuration not stated),> 100 µM (inactive),> 100 µM (inactive),> 100 µM (inactive),> 100 µM (inactive),> 100 µM (inactive),> 100 µM (inactive),> 100 µM (inactive),> 100 µM (inactive),> 100 µM,> 100 µM (inactive),> 100 µM (inactive),> 100 µM (inactive),> 100 µM (inactive),> 100 µM (inactive),> 100 µM (inactive),,,,,
CCOC(OCC)C(CC)[Se]c1ccccc1[N+](=O)[O-] (configuration not stated),5.7 µM (inactive),3.08 µM (inactive),7.43 µM (inactive),10.5 µM (inactive),2.9 µM (inactive),7.28 µM (inactive),6.35 µM (inactive),1.56 µM (inactive),1.57 µM,7.94 µM (inactive),2.44 µM (inactive),3.6 µM (inactive),5.33 µM (inactive),2.45 µM (inactive),2.81 µM (inactive),1.93 µM (inactive),3.18 µM (inactive),,,
O=[N+]([O-])/C(Cl)=C(\NCCN/C(C(Cl)=C(Cl)Cl)=C(/Cl)[N+](=O)[O-])C(Cl)=C(Cl)Cl,> 100 µM (inactive),71.8 µM (inactive),> 100 µM (inactive),57.8 µM (inactive),22 µM (inactive),46.5 µM (inactive),> 100 µM (inactive),83.6 µM (inactive),36.6 µM,70.5 µM (inactive),31.2 µM (inactive),39.1 µM (inactive),18.8 µM (inactive),16.5 µM (inactive),49.5 µM (inactive),27.8 µM (inactive),,89.7 µM (inactive),69 µM (inactive),87.1 µM (inactive)
O=C1Oc2cc3c(c4cccc1c24)OCN(c1ccc(Cl)cc1)C3,> 58.2 µM (inactive),4.32 µM (inactive),3.03 µM (inactive),> 49.2 µM (inactive),7 µM (inactive),26.4 µM (inactive),> 35.8 µM (inactive),27.4 µM (inactive),2.97 µM,13.6 µM (inactive),4.79 µM (inactive),11.3 µM (inactive),0.176 µM (active),12 µM (inactive),2.31 µM (inactive),0.923 µM (active),,,,
O=C(/C=C/c1ccccc1)NC1C=Nc2ccc(Cl)cc2NC1=O (configuration not stated),31.3 µM (inactive),47.9 µM (inactive),11.8 µM (inactive),37.9 µM (inactive),4.54 µM (inactive),26.9 µM (inactive),44.5 µM (inactive),21.2 µM (inactive),22.1 µM,24.8 µM (inactive),26.2 µM (inactive),22.8 µM (inactive),18.8 µM (inactive),19.5 µM (inactive),20.9 µM (inactive),9.42 µM (inactive),,,,
CCOc1ccccc1NC(=O)C1=C(C)NC(C)=C(C(=O)Nc2ccccc2OCC)C1c1ccc(NC(C)=O)cc1,38.6 µM (inactive),9.66 µM (inactive),23.6 µM (inactive),73.8 µM (inactive),32.1 µM (inactive),33.7 µM (inactive),33.6 µM (inactive),12.3 µM (inactive),,30.2 µM (inactive),,,38.9 µM (inactive),45.3 µM (inactive),35.7 µM (inactive),37.1 µM (inactive),,,,
Cc1ccccc1C(CCCO)C(=O)O (configuration not stated),> 100 µM (inactive),> 100 µM (inactive),> 100 µM (inactive),> 100 µM (inactive),> 100 µM (inactive),> 100 µM (inactive),> 100 µM (inactive),> 10 µM (inactive),> 100 µM,> 100 µM (inactive),> 100 µM (inactive),> 100 µM (inactive),> 100 µM (inactive),> 100 µM (inactive),> 100 µM (inactive),> 100 µM (inactive),,,,
CCN(CC)CCNC(=O)c1nn(C)c(=S)[nH]c1=S,> 100 µM (inactive),> 100 µM (inactive),> 100 µM (inactive),> 100 µM (inactive),> 100 µM (inactive),> 100 µM (inactive),> 100 µM (inactive),> 100 µM (inactive),> 100 µM,> 100 µM (inactive),> 100 µM (inactive),> 100 µM (inactive),> 100 µM (inactive),> 100 µM (inactive),> 100 µM (inactive),> 100 µM (inactive),,,,
O=C(/C=C\c1cccc2ccccc12)c1cccc2ccccc12,14.3 µM (inactive),20.7 µM (inactive),14.3 µM (inactive),8.17 µM (inactive),2.82 µM (inactive),15.9 µM (inactive),> 10 µM (inactive),13.1 µM (inactive),4.03 µM,15.5 µM (inactive),9.04 µM (inactive),6.22 µM (inactive),5.61 µM (inactive),7.91 µM (inactive),8.65 µM (inactive),4.92 µM (inactive),,,,
N#Cc1nc(-c2cccc(-c3nc(C#N)c(N)o3)n2)oc1N,> 100 µM (inactive),> 100 µM (inactive),> 100 µM (inactive),> 100 µM (inactive),> 100 µM (inactive),> 100 µM (inactive),> 100 µM (inactive),> 100 µM (inactive),> 100 µM,> 100 µM (inactive),> 100 µM (inactive),> 100 µM (inactive),> 100 µM (inactive),> 100 µM (inactive),> 100 µM (inactive),> 100 µM (inactive),> 100 µM (inactive),> 100 µM (inactive),,> 100 µM (inactive)
CCSC1=C(C)N(/C=N/C(C)(C)C)CC1,> 100 µM (inactive),> 100 µM (inactive),> 100 µM (inactive),> 100 µM (inactive),> 100 µM (inactive),> 100 µM (inactive),> 100 µM (inactive),> 100 µM (inactive),> 100 µM,> 100 µM (inactive),> 100 µM (inactive),> 100 µM (inactive),89.1 µM (inactive),> 100 µM (inactive),> 100 µM (inactive),> 100 µM (inactive),,,,
O=S1(=O)c2ccccc2Oc2ccc(C(/C=N/O)=N/O)cc21,7.71 µM (inactive),65.5 µM (inactive),24 µM (inactive),56.8 µM (inactive),27.5 µM (inactive),0.132 µM (active),> 100 µM (inactive),,41 µM,61.9 µM (inactive),71.3 µM (inactive),43.7 µM (inactive),19.8 µM (inactive),12.3 µM (inactive),27.9 µM (inactive),30.1 µM (inactive),,17.4 µM (inactive),,17.5 µM (inactive)
Cc1ccc(S(=O)(=O)N/N=C/c2oc(-c3cccc([N+](=O)[O-])c3)c(-c3cccc([N+](=O)[O-])c3)c2[N+](=O)[O-])cc1,> 100 µM (inactive),,16.3 µM (inactive),51.6 µM (inactive),25.8 µM (inactive),> 100 µM (inactive),> 100 µM (inactive),> 100 µM (inactive),62.2 µM,61.4 µM (inactive),17.8 µM (inactive),32.4 µM (inactive),16.7 µM (inactive),> 100 µM (inactive),> 100 µM (inactive),24.9 µM (inactive),,,,
O=P(Oc1ccc2ccccc2c1)(N1CC1)N1CC1,13.6 µM (inactive),,10.7 µM (inactive),28.4 µM (inactive),53.2 µM (inactive),10.7 µM (inactive),34 µM (inactive),88.1 µM (inactive),> 100 µM,23.5 µM (inactive),2.88 µM (inactive),53.3 µM (inactive),28.8 µM (inactive),65.8 µM (inactive),8.99 µM (inactive),37.2 µM (inactive),,,,
CCN(CC)C(=O)CCCCCCCCC1CO1 (configuration not stated),> 100 µM (inactive),> 100 µM (inactive),> 100 µM (inactive),> 100 µM (inactive),> 100 µM (inactive),81.3 µM (inactive),> 100 µM (inactive),,> 100 µM,> 100 µM (inactive),> 100 µM (inactive),> 100 µM (inactive),63.4 µM (inactive),> 100 µM (inactive),> 100 µM (inactive),> 100 µM (inactive),> 100 µM (inactive),> 100 µM (inactive),,> 100 µM (inactive)
COC(=O)CSc1nc2[nH]c(SC)c(C(N)=O)c2c(=O)n1-c1ccccc1,> 10 µM (inactive),> 10 µM (inactive),,> 10 µM (inactive),> 10 µM (inactive),> 10 µM (inactive),,> 10 µM (inactive),> 10 µM,> 10 µM (inactive),> 10 µM (inactive),,> 10 µM (inactive),,,> 10 µM (inactive),,,,> 10 µM (inactive)
CC[n+]1c(/C=C/c2ccc(N(CCCl)CCCl)cc2)ccc2cc(I)ccc21,2.74 µM (inactive),1.51 µM (inactive),5.93 µM (inactive),0.912 µM (active),0.723 µM (active),0.6 µM (active),1.96 µM (inactive),1.24 µM (inactive),6.52 µM,1.28 µM (inactive),0.507 µM (active),0.318 µM (active),0.766 µM (active),0.553 µM (active),1.31 µM (inactive),0.335 µM (active),,,,
